Measurements taken from patent publication US20060177888A1, “Method for evaluating antioxidation capability of organism sample” (Chugai Seiyaku Kabushiki Kaisha, priority 2003, published 2006).

Experiments:
[1] = tested on: cholesterol esters contained in plasma samples; experiment: Amounts of CEOOHs and CEOHs produced in AAPH-initiated oxidation of plasma samples with added antioxidant; assay type: biochemical; settings: antioxidant added to human plasma at various concentrations five minutes before AAPH (10 mM), 37° C., 8 hours; endogenous α-tocopherol present; FIG. 4
Description: Assay reproducibility was tested for oxidation products of cholesterol esters contained in plasma samples obtained from a normal human subject. In this test, the cholesterol esters were regarded as oxidizable substrates.
Blood was collected in heparin from one normal human subject who gave informed consent to prepare a plasma pool.
1.1 mL portions of this plasma sample were put into nine test tubes and were frozen-stored at −80° C.
Three test tubes A, B and C containing the frozen plasma were warmed to 37° C. for 5 minutes to thaw the frozen plasma. After thawing, the test tubes were kept in ice.
10 μL of an aqueous solution of AAPH (available from Wako Pure Chemical Industries, Ltd.; Lot No. DWF 1183) was added to 300 μL of plasma removed from each test tube at an AAPH concentration of 10 mM. Then, they were warmed to 37° C. to initiate an oxidation reaction.
After maintaining at 37° C. for 8 hours, the 3 vessels each containing the reaction solution were immersed in ice to stop the reaction. 1 mL of a methanol containing 0.02% acetic acid and 5 mL of hexane were added to 100 μL of each reaction solution to extract lipids. 4 mL of the hexane extract removed from each reaction solution was concentrated on Speed Vac (AES1010 available from Thermo Savant), and each concentrate was dissolved in 200 μL of isopropyl alcohol. […]

[2] = reported in literature (Gotoh 1992; Noguchi 1997); cited from earlier work

Structure (SMILES): CCCCCC1(CCCCC)Cc2c(cc(C(C)(C)C)c(O)c2C(C)(C)C)O1 [BO-653, 4,6-di-t-butyl-5-hydroxy-2,2-di-n-pentyl-2,3-dihydrobenzofuran]
- amounts of CEOOHs and CEOHs produced with the increase of the concentration of the antioxidant [1]: significantly decrease
- rate of the reaction with linoleic acid peroxy radicals, expressed as ratio to the rate of the reaction of α-tocopherol [2]: 1/2

Structure (SMILES): Cc1c(C)c2c(c(C)c1O)CC[C@@](C)(CCC[C@H](C)CCC[C@H](C)CCCC(C)C)O2 [α-tocopherol]
- amounts of CEOOHs and CEOHs produced with the increase of the concentration of the antioxidant [1]: significantly increase
